The numbers were not newly measured in patent US6552014B2, “Methods of inhibiting platelet activation with selective serotonin reuptake inhibitors” (HeartDrug Research, L.L.C., priority 1999, dated 2003), which cites them from elsewhere.

Conditions in all cases: cited from earlier work
The test system of data set [1] is serotonin 5-HT3 receptors.
A further data set relates to serotonin 5-HT2 receptor.
Data set [2] relates to central 2 alpha-adrenergic autoreceptors, and heteroreceptors.

Counter-ions that a name gives are not always drawn.

With `CN1CCN2c3ncccc3Cc3ccccc3C2C1` (stereo not shown) [Mirtazapine], the “antagonism of serotonin 5-HT3 receptors, in words” value in data set [1] is “antagonist”. In the data set with serotonin 5-HT2 receptor, the “antagonism of serotonin 5-HT2 receptor, in words” value is on record as “antagonist”. For the same molecule, in data set [2], the “antagonism of central 2 alpha-adrenergic autoreceptors and heteroreceptors, in words” value is “potent antagonist”.

`CCc1nn(CCCN2CCN(c3cccc(Cl)c3)CC2)c(=O)n1CCOc1ccccc1` [Nefazodone, 2-[3-[4-(3-chlorophenyl)-1-piperazinyl]propyl]-5-ether-2,4-dihydro-4-(2-phenoxyethyl)-3H-1,2,4-triazol-3-one monohydrochloride]: the “antagonism of serotonin 5-HT2 receptor, in words” value in the data set with serotonin 5-HT2 receptor is reported as “potent serotonin 5-HT2 receptor antagonist”.
